Results from EP0714896A1, “INDOL DERIVATIVES USEFUL FOR THE TREATMENT OF MIGRAINE, COMPOSITION AND UTILIZATION” (VITA-INVEST, S.A., priority 1994, dated 1995).

System: isolated rabbit saphenous vein
Test: 5HT1-like agonist activity on the isolated rabbit saphenous vein preparation (contraction)
Format: cell-based
Conditions: Oryctolagus cuniculus; pD2 = -log EC50 of contraction; after phenoxybenzamine 0.3 µM and pargyline 500 µM; 37°C
Method: 5HT1-like agonist activity of the synthesis products on the isolated rabbit saphenous vein preparation.
This study was conducted using the method described by Van Heuven-Nolsen (Van Heuven-Nolsen et al., Eur. J. Pharmacol. 191 (3); 375-382; 1990) and male New Zealand rabbits were used. The animals were sacrificed by exposure to excess CO₂. Thereafter the saphenous vein of each rear extremity was excised. 5 mm long segments were obtained from each vein. Each segment was placed, using appropriate supports, in an organ bath containing a Krebs-Henseleit solution aerated with carbogen and thermostatically controlled to 37°C. These conditions were held for 25 minutes, after which the preparation was subjected to a traction of 2 g at the same time as phenoxybenzamine (0.3 µM) and pargyline (500 µM) were added to the organ bath over 30 minutes. The phenoxybenzamine is an irreversible antagonist of the α-adrenoreceptors, whilst pargyline is a selective monoaminooxidase (MAO) inhibitor. At the end of these 30 minutes, successive washings were performed with Krebs solution every 7 minutes, for a further 30 minutes to remove the excess phenoxybenzamine. Thereafter, the preparation was subjected to an increasing contraction by the addition of cumulative doses of sumatriptan (10⁻⁹ at 3x10⁻⁵ M), followed by washing and allowing to rest for 30 minutes until the segment returns to its basal tension. At the end of this time, a further cumulative curve is plotted with the product to be studied. The pD2 (-log EC₅₀, the product concentration producing 50% of its maximum contraction) and the Emax (maximum contraction achieved) were calculated.

Compared with `CNS(=O)(=O)Cc1ccc2[nH]cc(CCCN3CCN(c4ncnc(OC)c4OC)CC3)c2c1` [Example 51, C-(3-{3-[4-(5,6-dimethoxy-pyrimidin-4-yl)-piperazin-1-yl]-propyl}-1H-indol-5-yl)-N-methyl-methanesulfonamide], `CNc1ncnc(N2CCN(CCCc3c[nH]c4ccc(CS(=O)(=O)NC)cc34)CC2)c1OC` [Example 64, C-(3-{3-[4-(6-methylamino-5-methoxy-pyrimidin-4-yl)-piperazin-1-yl]-propyl}-1H-indol-5-yl)-N-methyl-methanesulfonamide] is 15-fold higher in EC50: 7.24 nM for the first, 105 nM for the second. The first is the more potent here.

First: CNS(=O)(=O)Cc1ccc2[nH]cc(CCCNC3CCN(c4ncnc(OC)c4OC)C3)c2c1 (stereo not shown) [Example 56, C-(3-{3-[1-(5,6-dimethoxy-pyrimidin-4-yl)-pyrrolidin-3-ylamino]-propyl}-1H-indol-5-yl)-N-methyl-methanesulfonamide]
Second: CNS(=O)(=O)Cc1ccc2[nH]cc(CCCN(C)CCN(C)c3ncnc(OC)c3OC)c2c1 [Example 62, C-{3-[3-({2-[(5,6-dimethoxy-pyrimidin-4-yl)-methyl-amino]-ethyl}-methyl-amino)-propyl]-1H-indol-5-yl}-N-methyl-methanesulfonamide]
The EC50 of the first is 3.8-fold higher: 457 nM for the first, 120 nM for the second. The second is the more potent here.

Compared with `COc1cnc(C)nc1N1CCN(CCCc2c[nH]c3ccc(F)cc23)CC1` [Example 70, 5-fluoro-3-{3-[4-(2-methyl-5-methoxy-pyrimidin-4-yl)-piperazin-1-yl]-propyl}-1H-indole], `CNS(=O)(=O)Cc1ccc2[nH]cc(CCN3CCN(c4ncncc4OC)CC3)c2c1` [Example 85, C-(3-{2-[4-(5-methoxy-pyrimidin-4-yl)-piperazin-1-yl]-ethyl}-1H-indol-5-yl)-N-methyl-methanesulfonamide] is 8.1-fold higher in EC50: 324 nM for the first, 2630 nM for the second.

Going from `COc1ccc2[nH]cc(CCCN3CCN(c4ncnc(OC)c4OC)CC3)c2c1` [Example 80, 3-{3-[4-(5,6-dimethoxy-pyrimidin-4-yl)-piperazin-1-yl]-propyl}-5-methoxy-1H-indole] to `CNS(=O)(=O)Cc1ccc2[nH]cc(CCCN3CCN(c4ncncc4-c4ccccc4)CC3)c2c1` [Example 87, C-(3-{3-[4-(5-phenyl-pyrimidin-4-yl)-piperazin-1-yl]-propyl}-1H-indol-5-yl)-N-methylmethanesulfonamide], the EC50 rises from 1.38 nM to 282 nM (200-fold). The first is the more potent here.

Compared with `COc1cncnc1N1CCN(CC=Cc2c[nH]c3ccc(F)cc23)CC1` [Example 83, 5-fluoro-3-{3-[4-(5-methoxy-pyrimidin-4-yl)-piperazin-1-yl]-propenyl}-1H-indole], `NCCc1c[nH]c2ccc(O)cc12` [SEROTONIN, reference compound] is 15-fold lower in EC50: 724 nM for the first, 49 nM for the second. The second is the more potent here.

`CNS(=O)(=O)Cc1ccc2[nH]cc(CCN(C)C)c2c1` [SUMATRIPTAN, sumatriptan, reference compound] gave an EC50 of 347 nM.

Same assay, conditions: pD2 = -log EC50 of contraction; after phenoxybenzamine 0.3 µM and pargyline 500 µM; 37°C

`CNS(=O)(=O)Cc1ccc2[nH]cc(CCCNCCN(C)c3ncncc3OC)c2c1` [Example 59, C-[3-(3-{2-[5-methoxy-pyrimidin-4-yl)-methylaminolethylamino}-propyl)-1H-indol-5-yl]-N-methyl-methanesulfonamide.] and “C-(3-{3-[3-(5,6-dimethoxy-pyrimidin-4-yl)-piperazin-1-yl]-1-methyl-1H-indol-5-yl)-N-methyl-methanesulfonamide [Example 78]” are within 0.2 log units of each other in “RABBIT SAPHENOUS VEIN pD2” value: 6.64±0.24 for the first, 6.80±0.56 for the second.
